Values after ≈ are worked out from the molar mass of the structure shown. Where two headings read alike, the source gives them in different places.
Assays:
Type in all cases: cell-based
[1] = test system: Bacillus spp. (ATCC-14593); test: MIC, micro dilution method; conditions: ATCC14593; Bacillus sp.
Experimental: (§1) The disk diffusion method was used for the preliminary antibacterial evaluation of 1-pyridylimidazo[1,5-a]pyridine derivatives. The MIC50 of these derivatives, showing inhibition in the preliminary tests, were further determined by the microtitre plate technique using micro dilution method. In brief, the bacterial strains (S. aureus, P. vulgaris, Group D Streptococci, Bacillus sp., E. coli, P. aeruginosa and S. morganii)) were grown and diluted to 2×10^5 colony-forming units (CFU)/ml in sodium phosphate buffer (SPB) containing 0.03% Luria–Bertani (LB) broth. The synthesized derivatives were dissolved in DMSO and their serial dilution was performed in 50 µL of LB medium in 96-well microtitre plate to achieve the required concentrations (0.1–10 µg/ml) with bacterial inoculums (5×10^4 CFU per well). DMSO was taken as negative control and Ceftriaxone and clotrimazole were taken as positive control. After incubation at 37°C overnight, the MICs were taken as the lowest inhibitor concentration at which the bacterial growth was inhibited. The average of three values was calculated and that was the MIC for the test material and bacterial strain. […]

[2] = test system: Escherichia coli (ATCC-25922); test: MIC, micro dilution method; conditions: ATCC25922, E. coli
Experimental: as §1

[3] = test system: Proteus vulgaris (ATCC-29905); test: MIC, micro dilution method; conditions: ATCC29905, P. vulgaris
Experimental: as §1

[4] = test system: Pseudomonas aeruginosa (ATCC-27853); test: MIC, micro dilution method; conditions: ATCC27853
Experimental: as §1

[5] = test system: Staphylococcus aureus (ATCC-25923); test: MIC, micro dilution method; conditions: ATCC25923, S. aureus
Experimental: as §1

[6] = test system: Group D Streptococci (ATCC-12959); test: MIC, micro dilution method
Experimental: (§2) The disk diffusion method was used for the preliminary antibacterial evaluation of 1-pyridylimidazo[1,5-a]pyridine derivatives. The MIC50 of these derivatives, showing inhibition in the preliminary tests, were further determined by the microtitre plate technique using micro dilution method. In brief, the bacterial strains (S. aureus, P. vulgaris, Group D Streptococci, Bacillus sp., E. coli, P. aeruginosa and S. morganii)) were grown and diluted to 2×10^5 colony-forming units (CFU)/ml in sodium phosphate buffer (SPB) containing 0.03% Luria–Bertani (LB) broth. The synthesized derivatives were dissolved in DMSO and their serial dilution was performed in 50 µL of LB medium in 96-well microtitre plate to achieve the required concentrations (0.1–10 µg/ml) with bacterial inoculums (5×10^4 CFU per well). DMSO was taken as negative control and Ceftriaxone and clotrimazole were taken as positive control. After incubation at 37°C overnight, the MICs were taken as the lowest inhibitor concentration at which the bacterial growth was inhibited. The average of three values was calculated and that was the MIC for the test material and bacterial strain.
(§3) For the agar plate count method, 25 µL aliquots of bacteria at 1×10^5 CFU/ml in SPB containing 0.03% LB broth were incubated with 25 µL of diluted compounds for 2 h at 37°C. The mixtures of bacteria and compounds were serially diluted 10-fold with SPB and plated on LB plates that were incubated at 37°C overnight. Bacterial colonies were enumerated the following day.

[7] = test system: Serratia morganii (ATCC- 31665); test: MIC, micro dilution method; conditions: ATCC31665
Experimental: as §2, §3

[8] = test system: Bacillus spp. (ATCC-14593); test: MBC, sub cultivation from MIC plate; conditions: ATCC14593, Bacillus sp.
Experimental: (§4) After having determined the MICs, bacterial strains from the wells of the microtitre plate with no visible bacterial growth were removed for serial sub cultivation of 2 µl into another new microtitre plate containing 100 µl of broth per well and further incubated for 24 h. The lowest concentration with no visible growth was defined as MBC [28], indicating 99.5% killing of the original inoculum. The absorbance of each well was measured at a wavelength of 620 nm by Microplate Manager 4.0 (Bio-Rad laboratories) and compared with a blank. Solvent (DMSO) was used as a negative control. Three replicates were done for each compound and experiment was repeated two times.

[9] = test system: Escherichia coli (ATCC-25922); test: MBC, sub cultivation from MIC plate; conditions: ATCC25922, E. coli
Experimental: as §4

[10] = test system: Group D Streptococci (ATCC-12959); test: MBC, sub cultivation from MIC plate
Experimental: as §4

[11] = test system: Proteus vulgaris (ATCC-29905); test: MBC, sub cultivation from MIC plate; conditions: ATCC29905, P. vulgaris
Experimental: as §4

[12] = test system: Pseudomonas aeruginosa (ATCC-27853); test: MBC, sub cultivation from MIC plate
Experimental: as §4

[13] = test system: Serratia morganii (ATCC- 31665); test: MBC, sub cultivation from MIC plate
Experimental: as §4

[14] = test system: Staphylococcus aureus (ATCC-25923); test: MBC, sub cultivation from MIC plate; conditions: ATCC25923, S. aureus
Experimental: as §4

[15] = test system: Bacillus spp. (ATCC-14593); test: MIC, micro dilution method; conditions: ATCC14593; Bacillus sp.; remark: listed apart in the source

Row | Structure (SMILES) | MIC50 [2] [µg/mL] | MIC90 [2] [µg/mL] | MIC50 [3] [µg/mL] | MIC90 [3] [µg/mL] | MIC50 [4] [µg/mL] | MIC90 [4] [µg/mL] | MIC50 [5] [µg/mL] | MIC90 [5] [µg/mL] | MBC ([9]; read-out: MBC50) [µg/mL] | MBC ([9]; read-out: MBC90) [µg/mL] | MBC ([11]; read-out: MBC50) [µg/mL] | MBC ([11]; read-out: MBC90) [µg/mL] | MBC ([12]; ATCC27853, read-out: MBC50) [µg/mL] | MBC ([12]; ATCC27853, read-out: MBC90) [µg/mL] | MBC ([14]; read-out: MBC50) [µg/mL] | MBC ([14]; read-out: MBC90) [µg/mL] | also measured
1 | CO/N=C(\C(=O)N[C@@H]1C(=O)N2C(C(=O)O)=C(CSc3nc(=O)c(=O)[nH]n3C)CS[C@H]12)c1csc(N)n1 [Ceftriaxone, reference compound] | 0.07 (≈ 0.126 µM) | 0.12 (≈ 0.216 µM) | 0.4 (≈ 0.721 µM) | 0.8 (≈ 1.44 µM) | 1.5 (≈ 2.7 µM) | 3 (≈ 5.41 µM) | 3.8 (≈ 6.85 µM) | 6 (≈ 10.8 µM) | 0.14 (≈ 0.252 µM) | 0.24 (≈ 0.433 µM) | 0.9 (≈ 1.62 µM) | 1.2 (≈ 2.16 µM) | 3.2 (≈ 5.77 µM) | 5.5 (≈ 9.92 µM) | 7 (≈ 12.6 µM) | 10 (≈ 18 µM) | MIC50 [1]: 0.8 µg/mL (≈ 1.44 µM); MIC50 [6]: 0.08 µg/mL (≈ 0.144 µM); MIC90 [6]: 1.4 µg/mL (≈ 2.52 µM); MIC50 [7]: 0.9 µg/mL (≈ 1.62 µM); MIC90 [7]: 1.5 µg/mL (≈ 2.7 µM); MBC ([8]; read-out: MBC50): 1.7 µg/mL (≈ 3.07 µM); MBC ([8]; read-out: MBC90): 3.1 µg/mL (≈ 5.59 µM); MBC ([10]; read-out: MBC50): 1.5 µg/mL (≈ 2.7 µM); MBC ([10]; read-out: MBC90): 1.9 µg/mL (≈ 3.43 µM); MBC ([13]; ATCC31665, read-out: MBC50): 1.7 µg/mL (≈ 3.07 µM); MBC ([13]; ATCC31665, read-out: MBC90): 3.3 µg/mL (≈ 5.95 µM); MIC90 [15]: 1.6 µg/mL (≈ 2.89 µM)
2 | Clc1ccccc1C(c1ccccc1)(c1ccccc1)n1ccnc1 [Clotrimazole, 1-[(2-chlorophenyl)(diphenyl)methyl]-1H-imidazole, reference compound] | 45 (≈ 130 µM) | 85 (≈ 246 µM) | 0.00084 (≈ 0.00244 µM) | 0.00145 (≈ 0.0042 µM) | 40 (≈ 116 µM) | 75 (≈ 217 µM) | 0.0009 (≈ 0.00261 µM) | 0.0016 (≈ 0.00464 µM) | 75 (≈ 217 µM) | 144 (≈ 418 µM) | 0.0014 (≈ 0.00406 µM) | 0.0032 (≈ 0.00928 µM) | 68 (≈ 197 µM) | 134 (≈ 389 µM) | 0.0014 (≈ 0.00406 µM) | 0.003 (≈ 0.0087 µM) | 

— paper PMC3734177, “Design, Synthesis, Evaluation and Thermodynamics of 1-Substituted Pyridylimidazo[1,5-a]Pyridine Derivatives as Cysteine Protease Inhibitors” (PLoS ONE, 2013)
